Measured values published in the supplement of paper PMC4862054.

Tests used:
Conditions in all cases: incubation time: 72 h
[1] = system: MDA-MB-468; assay: normalised response (% of control), CellTox Green; higher = less cell death (100 = DMSO, 0 = benzethonium chloride kill control)
Outline: (§1)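 A 20 µl suspension of breast cancer cells was seeded into each well of 384-well plates containing compound at 5 concentrations in 10-fold steps over a compound-specific 10,000-fold range. After 72 h incubation, CellTox Green fluorescence (485/520 nm) was read first, and CellTiter-Glo luminescence was read after 10 min at room temperature. Each plate was normalised against 0.1 % DMSO (100) and a positive kill control (0), and each value is the normalised signal at one concentration.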

[2] = system: CAL-85-1; assay: as above
Outline: as §1

[3] = system: MFM-223; assay: as above
Outline: as §1

[4] = system: BT-549; assay: as above
Outline: as §1

[5] = system: HCC1599; assay: as above
Outline: as §1

[6] = system: CAL-120; assay: as above
Outline: as §1

[7] = system: MCF-10A; assay: as above
Outline: as §1

[8] = system: BT-474; assay: as above
Outline: as §1

[9] = system: MDA-MB-453; assay: as above
Outline: as §1

[10] = system: HCC1143; assay: as above
Outline: as §1

[11] = system: MDA-MB-436; assay: as above
Outline: as §1

[12] = system: DU-4475; assay: as above
Outline: as §1

[13] = system: CAL-148; assay: as above
Outline: as §1

[14] = system: CAL-51; assay: as above
Outline: as §1

[15] = system: MDA-MB-468; assay: normalised response (% of control), CellTiter-Glo; higher = more viable cells (100 = DMSO, 0 = benzethonium chloride kill control)
Experimental: (§2)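 DSRT, 72 h incubation, CellTox Green / CellTiter-Glo readout. Signal is normalised to DMSO and benzethonium chloride controls. Value is the normalised response at dose 3.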

[16] = system: CAL-85-1; assay: as above
Experimental: as §2

[17] = system: MFM-223; assay: as above
Experimental: as §2

[18] = system: HCC1937; assay: as above
Experimental: as §2

[19] = system: BT-549; assay: as above
Experimental: as §2

[20] = system: MDA-MB-231; assay: as above
Experimental: as §2

[21] = system: HCC1599; assay: as above
Experimental: as §2

[22] = system: CAL-120; assay: as above
Experimental: as §2

[23] = system: MCF-10A; assay: as above
Experimental: as §2

[24] = system: SK-BR-3; assay: as above
Experimental: as §2

[25] = system: Hs578T; assay: as above
Experimental: as §2

[26] = system: BT-474; assay: as above
Experimental: as §2

[27] = system: MDA-MB-453; assay: as above
Experimental: as §2

[28] = system: HCC1143; assay: as above
Experimental: as §2

[29] = system: MDA-MB-436; assay: as above
Experimental: as §2

[30] = system: HDQ-P1; assay: as above
Experimental: as §2

[31] = system: DU-4475; assay: as above
Experimental: as §2

[32] = system: CAL-148; assay: as above
Experimental: as §2

[33] = system: CAL-51; assay: as above
Experimental: as §2

[34] = system: HCC1937; assay: normalised response (% of control), CellTox Green; higher = less cell death (100 = DMSO, 0 = benzethonium chloride kill control)
Outline: as §1

[35] = system: MDA-MB-231; assay: as above
Outline: as §1

[36] = system: Hs578T; assay: as above
Outline: as §1

[37] = system: HDQ-P1; assay: as above
Outline: as §1

Compound	normalised response [1]	normalised response [2]	normalised response [3]	normalised response [4]	normalised response [5]	normalised response [6]	normalised response [7]	normalised response [8]	normalised response [9]	normalised response [10]	normalised response [11]	normalised response [12]	normalised response [13]	normalised response [14]	normalised response [15]	normalised response [16]	normalised response [17]	normalised response [18]	normalised response [19]	normalised response [20]	normalised response [21]	normalised response [22]	normalised response [23]	normalised response [24]	normalised response [25]	normalised response [26]	normalised response [27]	normalised response [28]	normalised response [29]	normalised response [30]	normalised response [31]	normalised response [32]	normalised response [33]	normalised response [34]	normalised response [35]	normalised response [36]	normalised response [37]
Cc1ccc(C(=O)Nc2ccc(CN3CCN(C)CC3)c(C(F)(F)F)c2)cc1C#Cc1cnc2cccnn12 [Ponatinib] (10 nM)	93.2%	103%	77.6%	94.4%	101%	102%	99.1%	100%	105%	69.8%	73.4%	101%	95.3%	99.5%	106%	99.5%	88.4%	94.3%	104%	99.6%	89.4%	106%	111%	106%	99.1%	105%	105%	99.5%	109%	105%	101%	106%	106%	–	–	–	–
Cc1ccc(C(=O)N(CCCN)[C@@H](c2oc3cc(Cl)ccc3c(=O)c2Cc2ccccc2)C(C)C)cc1 (1 nM)	–	113%	100%	93.7%	88.1%	83.7%	107%	101%	104%	–	108%	103%	93.5%	74.1%	93.9%	107%	91.4%	94.3%	101%	103%	104%	102%	97%	88.2%	94.8%	95%	91.4%	103%	105%	105%	96.6%	84.9%	65.8%	97%	102%	104%	100%
COc1cc2ncnc(Nc3ccc(F)c(Cl)c3)c2cc1NC(=O)/C=C/CN1CCCCC1 [Dacomitinib] (10 nM)	68.7%	90.5%	100%	102%	88.8%	105%	108%	98.8%	98%	80%	103%	104%	101%	105%	78.8%	84.2%	103%	98.1%	105%	106%	99.7%	100%	56.4%	77.3%	108%	100%	96%	102%	100%	77%	104%	103%	91%	–	103%	–	50%
NC(=O)Nc1cc(-c2cccc(F)c2)sc1C(=O)N[C@H]1CCCNC1 [AZD7762] (10 nM)	104%	100%	104%	96.5%	116%	99.8%	102%	101%	105%	105%	91%	99.5%	96%	113%	102%	97.5%	103%	95%	101%	104%	91.3%	106%	99.5%	103%	94.5%	105%	81.9%	110%	104%	94%	102%	106%	106%	107%	104%	–	108%
CC(C)Cn1cnc2c(N)nc3ccccc3c21 [Imiquimod] (25 nM)	–	98.1%	105%	87.2%	103%	96.9%	91.9%	102%	61.1%	81.4%	101%	102%	–	90.4%	104%	99.9%	107%	94.8%	103%	102%	101%	101%	103%	106%	107%	104%	97.4%	107%	104%	101%	107%	110%	81.8%	102%	100%	51.6%	74.9%
